Read-outs that look alike come from different tables or passages of the source.
Experiments:
[1] = tested on: DHL6; experiment: DLBCL cell line viability, CellTiter Glo, ten-point curve; type: cell-based; conditions: read-out: IC50 of Kinase Inhibitor in Cell Titer Glo Assay
[2] = tested on: PKC; experiment: Phase I study, selectivity of signaling inhibition; set-up: species or system human; conditions: in vivo
[3] = tested on: U2932; experiment: Combination synergy, Cell Titer Glo, 72 hours; type: cell-based; conditions: Homo sapiens
Protocol: Synergistic anti-tumor activity in DLBCL cell lines was determined using the Cell Titer Glo assay. Briefly, 5,000 cells were plated in 96 well plates in complete tissue culture media. […] Cells were incubated with or without drug for 72 hours in a 37° C. tissue culture incubator prior to evaluation by CellTiter Glo as per the manufacturer protocol (Promega). Synergy was evaluated by calculating combination index score, as described elsewhere (Jacquement et al, Molecular Cancer 2012) following IC50 determination using Prism software. The compounds are commercially available or are made according to synthetic methods known to those skilled in the art.

[4] = tested on: anti-IgM induced signalling; experiment: B cell receptor induced signalling in CLL cells, immunoblotting and flow cytometry; type: cell-based, human; conditions: pre-treatment
Protocol: Isolated CLL cells were cultured in RPMI-1640 with 15% fetal bovine serum (Gibco, Grand Island, N.Y., USA), penicillin (100 IU), and streptomycin (100 μg/mL), at a density of 1×10^7 cells/mL in the presence or absence of […] CpG, 100 ng/mL CD40L, 10 ng/mL IL-4. Anti-IgM stimulation was conducted with plate-bound anti-IgM (10 μg/mL). CLL cells were stimulated with 10 ng/mL IL-6 (R&D Systems, Minneapolis, Minn.), to detect the phosphorylation of JAK1/JAK2 (Cell Signaling Technology, Danvers, Mass.) and STAT3 (Cell Signaling Technology, Danvers, Mass., USA).

[5] = tested on: DLCL2; experiment: DLBCL cell line viability, CellTiter Glo, ten-point curve; type: cell-based; conditions: read-out: IC50 of Kinase Inhibitor in Cell Titer Glo Assay
[6] = Phase I study, pharmacokinetics following oral dosing; type: in vivo, human; conditions: for Cmax / AUC / half-life / steady-state Cmin to Cmax range: human, plasma
Protocol: A first-in-human study of cerdulatinib in patients with relapsed/refractory CLL/SLL or B-cell non-Hodgkin's lymphoma (NHL) was carried out. […] Patients received a single dose on day 1 for 72 hour PK evaluation. Continuous dosing was initiated on day 4. […] Median age was 67 years (range 23-85) and median prior therapies (tx) was 3 (range 1-8).
(§1) Pharmacokinetics (“PK”), pharmacodynamics (“PD”), and safety were monitored. Response was assessed by standard criteria. The level of inhibition of SYK and JAK was determined using a variety of whole blood assays measuring signaling via receptors for the B-cell antigen, IL2, IL4, IL6, and GM-CSF. Serum markers of tumor burden, including CCL3, CCL4, and other markers of inflammation (02M and CRP), were also being measured.

[7] = tested on: LY1; experiment: DLBCL cell line viability, CellTiter Glo, ten-point curve; type: cell-based; conditions: read-out: IC50 of Kinase Inhibitor in Cell Titer Glo Assay
Source text: (§2) Each IC50 value is an average of at least four replicate experiments.

[8] = tested on: LY10 (OCI-LY10); experiment: as above; type: cell-based
[9] = tested on: U2932; experiment: as above; type: cell-based; conditions: Homo sapiens, read-out: IC50 of Kinase Inhibitor in Cell Titer Glo Assay
Source text: as §2

[10] = tested on: IL4 signaling; experiment: Phase I study, whole blood assay of IL4 receptor signaling; type: in vivo, human; conditions: extrapolated from PK/PD fit of all data
Protocol: as §1

[11] = 15 mg/twice daily oral, Table 2, n=28
[12] = 15 mg/twice daily, Table 3, n=43
[13] = 20 mg/twice daily oral, Table 2, n=28
[14] = 20 mg/twice daily, Table 3, n=43
[15] = 45 mg/day oral, PK outlier removed, Table 2, n=28
[16] = 45 mg/twice daily, Table 3, n=43
[17] = 100 mg/day (one patient), Table 3

SMILES: CCS(=O)(=O)N1CCN(c2ccc(Nc3ncc(C(N)=O)c(NC4CC4)n3)cc2)CC1 [Cerdulatinib, 4-(cyclopropylamino)-2-(4-(4-(ethylsulfonyl)piperazin-1-yl)phenylamino)pyrimidine-5-carboxamide]
- IC50 [1]: 1.2 µM
- inhibition of PKC [2]: no inhibition
- IC50 ([3]; U2932, 72 h, read-out: IC50): 3.73 µM
- IC50 ([3]; U2932 cell line, read-out: IC50 value): 3.73 µM
- soluble and immobilised anti-IgM induced signalling pathways [4]: able to inhibit
- IC50 [5]: 5.4 µM
- SS Cave ([6]; 15 mg/day oral, Table 2, n=28): 190 nM
- SS Cave ([6]; 15 mg/day, Table 3, n=43): 190 nM
- SS Cmin ([6]; 15 mg/day, Table 3, n=43): 120 nM
- SS Cave [6, 11]: 390 nM
- SS Cave [6, 12]: 390 nM
- SS Cmin [6, 12]: 290 nM
- SS Cave [6, 13]: 520 nM
- SS Cave [6, 14]: 520 nM
- SS Cmin [6, 14]: 380 nM
- SS Cave ([6]; 30 mg/day oral, Table 2, n=28): 310 nM
- SS Cmin ([6]; 30 mg/day oral, Table 2, n=28): 210 nM
- SS Cave ([6]; 30 mg/day, Table 3, n=43): 310 nM
- SS Cmin ([6]; 30 mg/day, Table 3, n=43): 210 nM
- SS Cave ([6]; 40 mg/day oral, Table 2, n=28): 1140 nM
- SS Cmin ([6]; 40 mg/day oral, Table 2, n=28): 870 nM
- SS Cave ([6]; 40 mg/day, Table 3, n=43): 1140 nM
- SS Cmin ([6]; 40 mg/day, Table 3, n=43): 870 nM
- SS Cave [6, 15]: 1110 nM
- SS Cmin [6, 15]: 820 nM
- SS Cave ([6]; 45 mg/day, Table 3, n=43): 1110 nM
- SS Cmin ([6]; 45 mg/day, Table 3, n=43): 820 nM
- SS Cave [6, 16]: 1500 nM
- SS Cmin [6, 16]: 1480 nM
- SS Cave ([6]; 50 mg/day oral, Table 2, n=28): 1310 nM
- SS Cave ([6]; 50 mg/day, Table 3, n=43): 990 nM
- SS Cmin ([6]; 50 mg/day, Table 3, n=43): 790 nM
- SS Cave ([6]; 65 mg/day, Table 3, n=43): 1010 nM
- SS Cmin ([6]; 65 mg/day, Table 3, n=43): 760 nM
- SS Cave [6, 17]: 680 nM
- SS Cmin [6, 17]: 370 nM
- Cmax ([6]; oral, 15 mg/day, Table 3, n=43, read-out: SS Cmax): 380 nM
- Cmax ([6]; oral, 15 mg/twice daily, Table 3, n=43, read-out: SS Cmax): 530 nM
- Cmax ([6]; oral, 20 mg/twice daily, Table 3, n=43, read-out: SS Cmax): 890 nM
- Cmax ([6]; oral, 30 mg/day, Table 3, n=43, read-out: SS Cmax): 630 nM
- Cmax ([6]; oral, 40 mg/day, Table 3, n=43, read-out: SS Cmax): 1480 nM
- Cmax ([6]; oral, 45 mg, 45 mg BID, n=20, read-out: Cmax): 2160 ± 500 nM
- Cmax ([6]; oral, 45 mg/day, Table 3, n=43, read-out: SS Cmax): 1690 nM
- Cmax ([6]; oral, 45 mg/day, outlier removed from the group, read-out: steady state Cmax of PK outlier): 150 nM
- Cmax ([6]; oral, 45 mg/twice daily, Table 3, n=43, read-out: SS Cmax): 1800 nM
- Cmax ([6]; oral, 50 mg/day, Table 3, n=43, read-out: SS Cmax): 1570 nM
- Cmax ([6]; oral, 65 mg/day, Table 3, n=43, read-out: SS Cmax): 1670 nM
- Cmax ([6]; oral, 65 mg, read-out: steady state Cmax): ~2000 nM
- Cmax ([6]; oral, 100 mg/day, 100 mg/day (one patient), Table 3, read-out: SS Cmax): 1110 nM
- Cmax ([6]; oral, 40-100 mg QD doses, read-out: average steady state (SS) Cmax): 1630 ± 560 nM
- AUC ([6]; oral, 15 mg/day, Table 3, n=43): 4.5 ± 0.8 µM·h
- half-life ([6]; oral, 15 mg/day, Table 3, n=43, read-out: T1/2 (converted)): 11.5 h
- AUC ([6]; oral, 15 mg/twice daily, Table 3, n=43): 4.7 ± 1.3 µM·h
- half-life ([6]; oral, 15 mg/twice daily, Table 3, n=43, read-out: T1/2 (converted)): 11.2 h
- AUC ([6]; oral, 20 mg/twice daily, Table 3, n=43): 6.2 ± 1 µM·h
- half-life ([6]; oral, 20 mg/twice daily, Table 3, n=43, read-out: T1/2 (converted)): 8.4 h
- AUC ([6]; oral, 30 mg/day, Table 3, n=43): 7.5 ± 3 µM·h
- half-life ([6]; oral, 30 mg/day, Table 3, n=43, read-out: T1/2 (converted)): 12.3 h
- AUC ([6]; oral, 40 mg/day, Table 3, n=43): 27.3 ± 0.8 µM·h
- half-life ([6]; oral, 40 mg/day, Table 3, n=43, read-out: T1/2 (converted)): 32.8 h
- AUC ([6]; oral, 45 mg BID, n=20): 33.3 ± 15.9 µM·h
- half-life ([6]; oral, 45 mg BID, n=20, read-out: T1/2 (converted)): 27.5 ± 22.5 h
- AUC ([6]; oral, 45 mg/day, Table 3, n=43): 26.6 ± 13.9 µM·h
- half-life ([6]; oral, 45 mg/day, Table 3, n=43, read-out: T1/2 (converted)): 22.3 h
- AUC ([6]; oral, 50 mg/day, Table 3, n=43): 23.8 ± 14.9 µM·h
- half-life ([6]; oral, 50 mg/day, Table 3, n=43, read-out: T1/2 (converted)): 39 h
- AUC ([6]; oral, 65 mg/day, Table 3, n=43): 24.2 ± 0.7 µM·h
- half-life ([6]; oral, 65 mg/day, Table 3, n=43, read-out: T1/2 (converted)): 25.1 h
- AUC ([6]; oral, 100 mg/day (one patient), Table 3): 16.3 µM·h
- half-life ([6]; oral, 100 mg/day (one patient), Table 3, read-out: T1/2 (converted)): 14.4 h
- half-life ([6]; oral, once daily dosing, read-out: half-life): 12 to 16 h
- Cmax ([6]; po, 15 mg twice daily, 15 mg/twice daily oral, Table 2, n=28, read-out: SS Cmax): 530 nM
- Cmax ([6]; po, 15 mg/day, 15 mg/day oral, Table 2, n=28, read-out: SS Cmax): 380 nM
- Cmax ([6]; po, 20 mg twice daily, 20 mg/twice daily oral, Table 2, n=28, read-out: SS Cmax): 890 nM
- Cmax ([6]; po, 30 mg/day, 30 mg/day oral, Table 2, n=28, read-out: SS Cmax): 630 nM
- Cmax ([6]; po, 40 mg/day, 40 mg/day oral, Table 2, n=28, read-out: SS Cmax): 1480 nM
- Cmax ([6]; po, 45 mg/day, 45 mg/day oral, PK outlier removed, Table 2, n=28, read-out: SS Cmax): 1690 nM
- Cmax ([6]; po, 50 mg/day, 50 mg/day oral, Table 2, n=28, read-out: SS Cmax): 2070 nM
- steady-state Cmin to Cmax range ([6]; po, 65 mg, Patient 1, 65 mg PO QD): 730 to 1740 nM
- steady-state Cmin to Cmax range ([6]; po, Patient 2, 45 mg PO QD reduced to 30 mg): 250 to 630 nM
- AUC ([6]; 15 mg/day oral, Table 2, n=28): 4.5 µM·h
- half-life ([6]; 15 mg/day oral, Table 2, n=28, read-out: T1/2 (converted)): 11.5 h
- AUC [6, 11]: 4.7 µM·h
- half-life ([6]; 15 mg/twice daily oral, Table 2, n=28, read-out: T1/2 (converted)): 11.2 h
- AUC [6, 13]: 6.2 µM·h
- half-life ([6]; 20 mg/twice daily oral, Table 2, n=28, read-out: T1/2 (converted)): 8.4 h
- AUC ([6]; 30 mg/day oral, Table 2, n=28): 7.5 µM·h
- half-life ([6]; 30 mg/day oral, Table 2, n=28, read-out: T1/2 (converted)): 12.3 h
- AUC ([6]; 40 mg/day oral, Table 2, n=28): 27.3 µM·h
- half-life ([6]; 40 mg/day oral, Table 2, n=28, read-out: T1/2 (converted)): 32.8 h
- AUC [6, 15]: 26.6 µM·h
- half-life ([6]; 45 mg/day oral, PK outlier removed, Table 2, n=28, read-out: T1/2 (converted)): 22.3 h
- AUC ([6]; 50 mg/day oral, Table 2, n=28): 31.4 µM·h
- concentrations achievable in patients ([6]; in vivo): ~2200 nM
- IC50 [7]: 4.4 µM
- response of cell line ([8]; LY10 (OCI-LY10), CD79 mutation): sensitive
- IC50 ([8]; LY10 cell line, read-out: IC50 of Kinase Inhibitor in Cell Titer Glo Assay): 0.29 µM
- IC50 [9]: 2.6 µM
- inhibition at 15 mg ([10]; Homo sapiens, 15 mg/day, read-out: % Inh. IL4 (Cmin − Cmax)): 16 to 42%
- inhibition at 30 mg ([10]; Homo sapiens, 30 mg/day, read-out: % Inh. IL4 (Cmin − Cmax)): 26 to 57%
- inhibition at 100 mg ([10]; Homo sapiens, 100 mg/day (one patient), read-out: % Inh. IL4 (Cmin − Cmax)): 41 to 72%
- % Inh. IL4 (Cmin − Cmax) ([10]; printed on the 40 mg/day line (45-65 mg/day lines empty)): 63 − 78%

Reference: patent US11446300B2 (Alexion Pharmaceuticals, Inc., priority 2015, dated 2022)
